Experimental data from ChEMBL document CHEMBL2321784, “Discovery of 5-benzyl-3-phenyl-4,5-dihydroisoxazoles and 5-benzyl-3-phenyl-1,4,2-dioxazoles as potent firefly luciferase inhibitors” (J Med Chem, 2013).
Active and inactive are the calls of the source. The rule behind the calls is not given here.

Tests used:
[1] = target: Luciferin 4-monooxygenase (Photinus pyralis) (UniProt P08659); assay: Inhibition of recombinant firefly luciferase at 10 uM after 20 mins by luminescence assay
[2] = target: Luciferin 4-monooxygenase (Photinus pyralis) (UniProt P08659); assay: Inhibition of recombinant firefly luciferase at 1 nM after 20 mins by luminescence assay
[3] = target: Luciferin 4-monooxygenase (Photinus pyralis, UniProt P08659); assay: Inhibition of recombinant firefly luciferase after 20 mins by luminescence assay
Chain of Luciferin 4-monooxygenase (P08659 whole entry): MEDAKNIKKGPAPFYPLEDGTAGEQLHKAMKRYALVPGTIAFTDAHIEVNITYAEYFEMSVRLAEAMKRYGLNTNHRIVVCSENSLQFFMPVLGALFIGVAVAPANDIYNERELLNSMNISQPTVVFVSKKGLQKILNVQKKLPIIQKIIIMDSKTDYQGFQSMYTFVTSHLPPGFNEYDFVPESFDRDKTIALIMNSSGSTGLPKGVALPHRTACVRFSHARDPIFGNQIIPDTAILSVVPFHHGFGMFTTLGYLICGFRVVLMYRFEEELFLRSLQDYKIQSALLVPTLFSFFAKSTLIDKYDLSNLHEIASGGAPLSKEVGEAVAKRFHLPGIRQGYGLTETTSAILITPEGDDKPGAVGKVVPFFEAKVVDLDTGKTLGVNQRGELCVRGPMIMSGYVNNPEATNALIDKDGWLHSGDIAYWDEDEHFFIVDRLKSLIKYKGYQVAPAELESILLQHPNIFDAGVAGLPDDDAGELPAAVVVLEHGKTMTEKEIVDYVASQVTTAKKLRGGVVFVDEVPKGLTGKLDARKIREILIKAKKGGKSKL

[4] = target: Luciferin 4-monooxygenase (Photinus pyralis) (UniProt P08659); assay: Inhibition of recombinant firefly luciferase activity expressed in U87 cells at 10 uM after 48 hrs; format: cell-based; details: U-87MG ATCC
[5] = target: Luciferin 4-monooxygenase (Photinus pyralis) (UniProt P08659); assay: Inhibition of recombinant firefly luciferase activity expressed in U87 cells at 10 uM after 2 mins; format: cell-based; details: U-87MG ATCC
[6] = target: Luciferin 4-monooxygenase (Photinus pyralis) (UniProt P08659); assay: Noncompetitive inhibition of recombinant firefly luciferase using luciferin as substrate at 1 to 100 nM after 30 min by Michaelis-Menten plot analysis
[7] = target: Luciferin 4-monooxygenase (Photinus pyralis) (UniProt P08659); assay: Noncompetitive inhibition of recombinant firefly luciferase using ATP as substrate at 1 to 100 nM after 30 mins by Michaelis-Menten plot analysis
[8] = target: Luciferin 4-monooxygenase (Photinus pyralis) (UniProt P08659); assay: Noncovalent inhibition of recombinant firefly luciferase assessed as inhibition of enzyme-compound adduct formation at 10 uM after 5 mins by SDS-PAGE based liquid scintillation counting analysis; details: tested as the 14C-labelled form

Chain of Luciferin 4-monooxygenase (Photinus pyralis) (P08659 whole entry): as above

Row | Compound | inhibition [1] [%] | inhibition [2] [%] | IC50 [3] [nM] | also measured
1 | COc1cccc(C2=NO[C@H](Cc3ccccc3)C2)c1 | 99.4 | 65.9 | 0.398 | –
2 | COc1ccc(C2=NO[C@@H](Cc3ccccc3OC)C2)cc1 | 67.1 | 6.1 | 2190 | –
3 | c1ccc(C[C@H]2CC(c3ccc4ccccc4c3)=NO2)cc1 | 31.5 | 4.9 | – | pIC50 [3]: > 5
4 | Fc1ccccc1C1=NO[C@@H](Cc2ccccc2)C1 | 83 | 11.3 | 1020 | –
5 | COc1ccc(C2=NO[C@H](CCc3ccccc3)C2)cc1 | 96 | 30.5 | 13.8 | –
6 | COc1ccc(C2=NO[C@@H](CCc3ccccc3)C2)cc1 | 6.8 | 2.5 | – | –
7 | c1ccc(C[C@H]2CC(c3cccc4ccccc34)=NO2)cc1 | 41.5 | 5.5 | – | pIC50 [3]: > 5
8 | COc1ccccc1C1=NO[C@@H](Cc2ccccc2)C1 | 57.5 | 5.2 | 6920 | –
9 | COc1ccccc1C1=NO[C@H](Cc2ccccc2)C1 | 99.4 | 51.7 | 0.912 | –
10 | CC(C)c1ccc(C[C@@H]2CC(c3ccc(Cl)cc3)=NO2)cc1 | 0.7 | 0.4 | – | –
11 | CC(C)c1ccc(C[C@H]2CC(c3ccc(Cl)cc3)=NO2)cc1 | 31.9 | 1.7 | – | pIC50 [3]: > 5
12 | COc1ccc(C2=NO[C@@H](Cc3cccc(OC)c3)C2)cc1 | 25.5 | 4 | – | pIC50 [3]: > 5
13 | COc1ccc(C2=NO[C@H](Cc3ccccc3OC)C2)cc1 | 98.8 | 46.5 | 1.82 | –
14 | Oc1ccc(/C=C/c2cc(O)cc(O)c2)cc1 | 99.6 | 6.8 | – | –
15 | N#Cc1ccc(C2=NO[C@@H](Cc3ccccc3)C2)cc1 | 88.3 | 14.7 | 331 | –
16 | COc1ccc(C2=NO[C@H](Cc3ccccc3)C2)cc1 | 99.8 | 70.9 | 0.288 | inhibition [4]: Active; inhibition [5]: Active; inhibition [6]: Active; inhibition [7]: Active
17 | COc1ccc(C2=NO[C@@H](Cc3ccccc3)C2)cc1 | 68 | 6.4 | 2450 | –
18 | COc1cccc(C2=NO[C@@H](Cc3ccccc3)C2)c1 | 75.3 | 9.6 | 1950 | –
19 | c1ccc(C[C@@H]2CC(c3ccc4ccccc4c3)=NO2)cc1 | 97 | 13.4 | 87.1 | –
20 | COc1cccc(C[C@H]2CC(c3ccc(Cl)cc3)=NO2)c1 | 33.6 | 1.1 | – | pIC50 [3]: > 5
21 | CC1(Cc2ccccc2)CC(c2ccc(Cl)cc2)=NO1 (racemic) | 95.8 | 28.7 | 32.4 | –
22 | Clc1ccccc1C1=NOC(Cc2ccccc2)C1 (racemic) | 99.8 | 50.7 | 0.933 | –

Row | Compound | inhibition [1] [%] | inhibition [2] [%] | IC50 [3] [nM] | also measured
23 | COc1ccc(C2=NO[C@H](Cc3ccccc3)O2)cc1 | 99.5 | 56.1 | 0.955 | –
24 | COc1ccc(CC2CC(c3ccc(Cl)cc3)=NO2)cc1OC (racemic) | 2.2 | 0.9 | – | –
25 | c1ccc(C[C@@H]2CC(c3ccccc3)=NO2)cc1 | 99.5 | 47.1 | 1.58 | –
26 | Fc1ccc(C2=NO[C@@H](Cc3ccccc3)C2)cc1 | 85.6 | 7.7 | 741 | –
27 | COc1ccc(C2=NO[C@H](Cc3cccc(OC)c3)C2)cc1 | 98.7 | 43.8 | 1.17 | –
28 | Clc1ccc(C2=NO[C@@H](Cc3cccc4ccccc34)C2)cc1 | 36.6 | 1.9 | – | pIC50 [3]: > 5
29 | Oc1ccccc1C1=NO[C@@H](Cc2ccccc2)C1 | 79.7 | 8.9 | 1120 | –
30 | Clc1ccc(C2=NO[C@H](Cc3cccc4ccccc34)C2)cc1 | 40.9 | 2 | – | pIC50 [3]: > 5
31 | c1ccc(C[C@H]2CC(c3ccccc3)=NO2)cc1 | 94.9 | 6.5 | 174 | –
32 | Fc1cccc(C2=NO[C@H](Cc3ccccc3)C2)c1 | 98.2 | 61.6 | 0.955 | –
33 | N#Cc1ccc(C2=NOC(Cc3ccccc3)C2)cc1 (racemic) | – | – | – | inhibition [8]: Active
34 | COc1ccc(C[C@H]2CC(c3ccc(Cl)cc3)=NO2)cc1 | 1.7 | 1 | – | –
35 | Clc1ccc(C2=NO[C@@H](Cc3ccccc3)C2)cc1 | 88.3 | 17.7 | 417 | –
36 | Oc1ccccc1C1=NO[C@H](Cc2ccccc2)C1 | 98.4 | 48.1 | 1.95 | –
37 | Clc1ccccc1C1=NOC(Cc2ccccc2)O1 (racemic) | 99.6 | 68.5 | 0.525 | –
38 | Fc1ccc(C[C@H]2CC(c3ccc(Cl)cc3)=NO2)cc1 | 86.8 | 1.4 | 603 | –
39 | O=[N+]([O-])c1ccc(C2=NOC(Cc3ccccc3)C2)cc1 (racemic) | 96.4 | 63.9 | 0.741 | –
40 | Oc1ccc(C2=NO[C@H](Cc3ccccc3)C2)cc1 | 93.3 | 13.1 | 316 | –
41 | COc1ccc(C2=NO[C@@H](Cc3ccccc3)O2)cc1 | 98.6 | 42 | 5.25 | –
42 | COc1ccccc1C1=NO[C@@H](Cc2ccccc2)O1 | 63.3 | 5 | 4270 | –
43 | Fc1ccc(C2=NO[C@H](Cc3ccccc3)C2)cc1 | 99.5 | 76.8 | 0.309 | –
44 | Oc1cccc(C2=NO[C@H](Cc3ccccc3)C2)c1 | 99.7 | 47 | 0.832 | –

Row | Compound | inhibition [1] [%] | inhibition [2] [%] | IC50 [3] [nM] | also measured
45 | COc1ccccc1CC1CC(c2ccc(Cl)cc2)=NO1 (racemic) | 91.8 | 29.8 | 16.2 | –
46 | Oc1cccc(C2=NO[C@@H](Cc3ccccc3)C2)c1 | 71.5 | 6.7 | 2190 | –
47 | Clc1ccc(C2=NOC(CCc3ccccc3)C2)cc1 (racemic) | 64.2 | 1.5 | 3240 | –
48 | COc1ccc(C2=NOC(C)(Cc3ccccc3)C2)cc1 (racemic) | 97.6 | 20.3 | 21.9 | –
49 | CCc1ccc(C[C@@H]2CC(c3ccc(Cl)cc3)=NO2)cc1 | 29.4 | 6.3 | – | pIC50 [3]: > 5
50 | Fc1ccccc1C1=NOC(Cc2ccccc2)O1 (racemic) | 98 | 38.8 | 2.82 | –
51 | Oc1ccc(C2=NO[C@@H](Cc3ccccc3)C2)cc1 | 42.8 | 5.3 | – | pIC50 [3]: > 5
52 | Fc1ccccc1C1=NO[C@H](Cc2ccccc2)C1 | 99.3 | 57.9 | 0.955 | –
53 | COc1ccc(C2=NO[C@@H](Cc3ccc(F)cc3)C2)cc1 | 41.3 | -1.9 | – | pIC50 [3]: > 5
54 | COc1cccc(C[C@@H]2CC(c3ccc(Cl)cc3)=NO2)c1 | 96.7 | 20.6 | 17 | –
55 | Fc1cccc(C2=NO[C@@H](Cc3ccccc3)C2)c1 | 84.1 | -3.7 | 1000 | –
56 | COc1ccccc1C1=NO[C@H](Cc2ccccc2)O1 | 98.2 | 48.3 | 2.14 | –
57 | CCc1ccc(C[C@H]2CC(c3ccc(Cl)cc3)=NO2)cc1 | 50.2 | 2.5 | 8710 | –
58 | Clc1cccc(C2=NOC(Cc3ccccc3)C2)c1 (racemic) | 94.8 | 26.1 | 15.1 | –
59 | c1ccc(C[C@@H]2CC(c3cccc4ccccc34)=NO2)cc1 | 62.2 | 3 | 2510 | –
60 | COc1ccc(C2=NO[C@H](Cc3ccc(F)cc3)C2)cc1 | 100 | 26.7 | 10.5 | –
61 | COc1ccc(C[C@@H]2CC(c3ccc(Cl)cc3)=NO2)cc1 | 30.4 | 3.8 | – | pIC50 [3]: > 5
62 | N#Cc1ccc(C2=NO[C@H](Cc3ccccc3)C2)cc1 | 99.2 | 53.6 | 0.891 | –
63 | COc1ccc(C[C@H]2CC(c3ccc(OC)cc3)=NO2)cc1 | 3.1 | 3.3 | – | –
64 | COc1ccc(C[C@@H]2CC(c3ccc(OC)cc3)=NO2)cc1 | 37.4 | 3.1 | – | pIC50 [3]: > 5
65 | Fc1ccc(C[C@@H]2CC(c3ccc(Cl)cc3)=NO2)cc1 | 99.2 | 53 | 0.871 | –
